Source: patent US12655171B2, “Compounds for activating invariant natural killer T-cells and methods of use in eliminating inflammatory senescent cells” (Deciduous Therapeutics, Inc., priority 2021, dated 2026)

Legend:
[1] = tested on: human iTCR; assay: In vitro activation of human iTCR through Jurkat reporter cell line (JiNKT, GFP under NFkB promoter) with drug-loaded BWSTIM cells; assay type: cell-based; conditions: 1 μg/mL; for GFP expression compared to the negative control: BWSTIM + JiNKT, 24 hours, FIG. 6A; for % GFP hiNKT binding (BWSTIM + JiNKT) 1 μg/mL, away from negative control: difference from negative control
Experimental: In order to determine the human iTCR activation potential induced by the compounds described herein, a jurkat cell line (JiNKT) was transfected with the human iTCR, and GFP under the NFkB promoter (cell line licensed from the Medical University of Vienna). A BWS147 cell line (BWSTIM) was also transfected with CD80 and CD1d to act as the antigen-presenting cell.
(§1) DCD molecules or α-GalCer were both dissolved in DMSO at a 5 mg/mL stock solution. BWSTIM cells were loaded with DCD molecules or α-GalCer at varying concentrations for 4 hours at 37° C. at a concentration of 20 k cells/well in 200 μL of media in a u-bottom 96 well dish. BWSTIM cells were washed 2× with media, then incubated with JiNKT cells at a concentration of 80 k cells/well in a u-bottom 96 well dish. Cells were co-cultured for 18 to 24 hours. The percentage of cells expressing high levels of GFP was measured through flow cytometry (after gating out the mCD45+ BWSTIM cells).
(§2) A jurkat cell line (JiNKT) was transfected with the human iTCR, and GFP under the NFkB promoter. A BWS147 cell line (BWSTIM) was also transfected with CD80 and CD1d to act as the antigen-presenting cell. A mouse iNKT hybridoma cell line (DN3.2) was also used as the iNKT. […]
as §1, with “GVK” for “DCD”, “compounds” for “DCD molecules or α-GalCer at varying concentrations”, “for” for “for 18 to”, “cytometry. 1 μg/mL of molecule GVK1a, GVK1b, GVK1c, or GVK1f was incubated with BWSTIM+JiNKT, and compared to α-GalCer.” for “cytometry (after gating out the mCD45+ BWSTIM cells).”

[2] = tested on: mouse iTCR; assay: In vitro activation of mouse iTCR, DN3.2 iNKT hybridoma with drug-loaded BWSTIM cells, IL-2 secretion; assay type: cell-based; conditions: 48 hours co-culture; FIG. 6B
Experimental: In order to determine the mouse iTCR activation potential induced by the compounds described herein, a mouse iNKT hybridoma cell line (DN3.2) from the La Jolla Institute for Allergy and Immunology were used as the iNKT. The BWS147 cell line (BWSTIM) with CD80 and CD1d acted as the antigen-presenting cell.
(§3) DCD molecules or α-GalCer were both dissolved in DMSO at a 5 mg/mL stock solution. BWSTIM cells were loaded with DCD molecules or α-GalCer of varying concentrations for 4 hours at 37° C. at a concentration of 20 k cells/well in 200 μL of media in a u-bottom 96 well dish. BWSTIM cells were washed 2× with media, then incubated with DN3.2 cells at a concentration of 80 k cells/well in a u-bottom 96 well dish. Cells were co-cultured for 48 hours. Media was collected and IL-2 was measured using the CisBio HTRF ELISA detection kit.
as §2
as §3, with “GVK” for “DCD”, “compounds” for “DCD molecules or α-GalCer of varying concentrations”

[3] = tested on: primary human iNKT cells; assay: Cytokine secretion of primary human iNKT cells co-cultured with drug-loaded BWSTIM cells; assay type: cell-based; conditions: for secretion of IFNγ / secretion of IL-4 / secretion of IL-6 / secretion of TNFα: GVK compounds vs absence of drug loading, α-GalCer vs GVK compounds, media collected 2 days later, FIG. 6C; for Primary iNKT cytokine release: IL-4, IL-6, IFNγ or TNFα
Experimental: In order to determine the activation profile induced by the compounds described herein, primary human iNKT cells were co-cultured with drug-loaded BWSTIM cells.
Day 0: PBMCs were isolated from human blood using the STEMCELL TECHNOLOGIES™ SepMate™ PBMC isolation system. iNKT cells were then selected using the Miltenyi NKT magnetic cell separation kit.
Day 2: DCD molecules or α-GalCer were both dissolved in DMSO at a 5 mg/mL stock solution. BWSTIM cells were fixed with mitomycin C, then loaded with 10 μg/mL of DCD molecules or α-GalCer for 4 hours at 37° C. at a concentration of 20 k cells/well in 200 μL of media in a u-bottom 96 well dish. Cells were co-cultured with 80 k 6B11+ selected primary human iNKT cells.
D4: Media was collected. Cytokines were measured using the Satorious 4Plex kit on the iQue3 cytometer.
GVK molecules or α-GalCer were both dissolved in DMSO at a 5 mg/mL stock solution. BWSTIM cells were loaded with compounds for 4 hours at 37° C. at a concentration of 20 k cells/well in 200 μL of media in a u-bottom 96 well dish. Cells were co-cultured with 100 k 6B11+ selected primary human iNKT cells. Media was collected 2 days later. Cytokines were measured using the Satorious 4Plex kit on the iQue3 cytometer.

[4] = tested on: DN3.2; assay: IL-2 Secretion (A20 + DN3.2); assay type: cell-based, mouse
[5] = tested on: iNKT cells; assay: Diet induced obesity (HFD) mouse model: iNKT cell expansion in spleen or eWAT; assay type: in vivo, C57BL/6J mice; conditions: HFD mice, I.P. 2 g, four days post-injection
Experimental: (§4) Senescence is a feature of pre-adipocytes in obese individuals. To study the efficacy of the molecules described herein in decreasing senescence in fat, a diet induced obesity high fat diet (HFD) mouse model was used. 22-week-old HFD mice were injected with α-GalCer as a control and compared with the compounds of the present disclosure. The blood and spleen (or adipose tissue) were collected to measure iNKT activation and expansion, respectively. Cells in the eWAT (adipose tissue) were also collected and measured for % senescent cells. HFD mice were compared to non-HFD (normal diet) mice.
(§5) 22-week-old C57BL/6J mice on a chow or high-fat diet (HFD) were injected (I.P) with […] of α-GalCer, compound DCD-101 or compound DCD-154. Molecules were either dissolved in DMSO at a 5 mg/mL stock solution, or formulated into liposomes through thin-film rehydration, then extrusion through 200 nm filters. Liposome-based formulations were constructed using soy phosphatidylcholine, cholesterol, and DCD or α-GalCer in a 2:1:0.15 ratio. Two or twenty hours post-injection, blood was collected from the tail to measure the level of IFNγ using ELISA. Four days post-injection, mice were sacrificed to collect eWAT or spleen. Spleen was used to measure the number of iNKT cells, and eWAT was used to measure the number of iNKT cells and senescent cells using flow cytometry. iNKT cells were identified in the digested adipose tissue by gating live cells and mouse CD1d-α-GalCer tetramer+ cells. Senescent cells were measured withing the processes adipose tissue by selecting mCD45− cells, and C12FDG^HIGH cells.

[6] = tested on: IFNγ; assay: Diet induced obesity (HFD) mouse model: serum IFNγ (ELISA); assay type: in vivo, C57BL/6J mice
Experimental: as §4, §5

[7] = tested on: senescent cells in eWAT; assay: Diet induced obesity (HFD) mouse model: senescent cells (C12FDG+) in eWAT; assay type: in vivo, C57BL/6J mice; conditions: HFD mice, four days post-injection; FIG. 5E
Experimental: as §4, §5

[8] = tested on: human iTCR; assay: % GFP hiNKT binding (recombinant protein CD1d + JiNKT); assay type: cell-based
[9] = tested on: senescent cells; assay: Selective killing of senescent cells in vitro by activated human iNKT cells; assay type: cell-based
Experimental: Human iNKT cells were isolated and activated by incubation with α-GalCer. Activated iNKT cells were combined with samples containing healthy cells and senescent cells.

% GFP hiNKT binding (recombinant protein CD1d + JiNKT) [8] | Structure (SMILES) | GFP expression compared to the negative control [1] | % GFP hiNKT binding (BWSTIM + JiNKT) 1 μg/mL, away from negative control [1] | expression of IL-2 in the DN3.2 cell line when loaded on BWSTIM CD1d [2] | secretion of IFNγ [3] | secretion of IL-4 [3] | secretion of IL-6 [3] | secretion of TNFα [3] | Primary iNKT cytokine release [3] | IL-2 Secretion (A20 + DN3.2) [4] | % GFP hiNKT binding (BWSTIM + JiNKT) 1 μg/mL ([1]; % GFP) | expansion of immune (iNKT) cells in HFD mouse spleen ([5]; FIG. 5A) | expansion of immune (iNKT) cells in HFD mouse eWAT ([5]; percent iNKT cells of live cells, FIG. 5B) | levels of IFNγ in the HFD model ([6]; twenty hours post injection, FIG. 5D) | levels of serum IFNγ in the HFD model ([6]; two hours post injection, FIG. 5C) | accumulation of senescent cells (C12FDG+) in eWAT [7] | killing of senescent vs non-senescent cells by iNKT cells activated by the compound ([9]; evaluated after 8 hours and 18 hours, FIG. 7B) | presence of senescent vs non-senescent cells on incubation with iNKT cells activated by the compound ([9]; over a period of 18 hours, FIG. 7A)
– | CCCCCCCCCCCCCCCCCCCCCCCCCC(=O)N[C@@H](CCC1OC(CO)C(O)C(O)C1O)[C@@H](O)[C@H](O)CCCCCCCCCCCCCC (stereo partly shown) [GVK1b] | did not induce GFP expression higher than the negative control | % <5 away from | did not induce expression of IL-2 | did not increase secretion | did not increase secretion | did not increase secretion | did not increase secretion | No activation | Does not | – | – | – | – | – | – | – | –
% 30 | CCCCCCCCCCCCCCCCCCCCCCCCCC(=O)N[C@@H](CO[C@H]1O[C@H](CO)[C@H](O)[C@H](O)[C@H]1O)[C@H](O)[C@H](O)CCCCCCCCCCCCCC [α-GalCer, Alpha-galactosylceramide, reference compound] | induction remained high | – | – | significantly greater increase in the secretion | significantly greater increase in the secretion | significantly greater increase in the secretion | significantly greater increase in the secretion | – | – | % 40-70 | caused expansion of immune cells in HFD mouse spleen | caused expansion of immune cells in HFD mouse eWAT | significantly increased levels of IFNγ | significantly increased levels of IFNγ | effective in decreasing the accumulation of senescent cells in eWAT | senescent cells were selectively killed whereas non-senescent cells were maintained | reduction in the presence of senescent cells over time whereas non-senescent cells were maintained
– | CCCCCCCCCCCCCCCCCCCCCCCCCC(=O)N[C@@H](CCC1OC(CO)C(O)C(O)C1O)[C@@H](O)[C@H](O)CCCCCCCCCCCCCC (stereo partly shown) [GVK1a] | did not induce GFP expression higher than the negative control | % <5 away from | – | did not increase secretion | did not increase secretion | did not increase secretion | did not increase secretion | No activation | Activated | – | – | – | – | – | – | – | –
